SMILES strings stand for the structures.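 All cell lines were grown in 96-well plates and treated with compound for 48 hours. TGI is the concentration that stops growth completely.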

Holding throughout (assay): NCI tumour cell line growth inhibition, 48 h
The test system of assay [1] is RXF-631 renal.
Assay [2] relates to DLD-1 colon.
Assay [3] concerns M19-MEL melanoma.
Assay [4] has as its system XF 498 CNS.
For assay [5], the system named is KM20L2 colon.
In assay [6] the test system is HOP-18 NSCLC.
Assay [7] concerns BT-549 breast.
The test system of assay [8] is MDA-N.

For the molecule `CCC1CN2CCc3cc(OC)c(OC)cc3C2CC1CC1c2cc(OC)c(OC)cc2CCN1C(=O)C1CCCN1C(=O)OCc1ccccc1` (stereo not given), the TGI in assay [1] stood at 33.9 µM; in assay [2], 31 µM; in assay [3] it was 28.8 µM; in assay [4], 30.4 µM; in assay [5], 31.4 µM; in assay [6], 53.7 µM.
`c1ccc(SC(CCCCC(Sc2ccccc2)Sc2ccccc2)Sc2ccccc2)cc1`: the TGI in assay [1], in assay [2], in assay [3], in assay [4] and in assay [5] was more than 100 µM in each case.
With `Cc1cc(N(CCC#N)CCC#N)ccc1/C=C/C(=O)Nc1cccc(Cl)c1`, the TGI in assay [1], in assay [2], in assay [3], in assay [4] and in assay [5] was more than 100 µM each time.
As to `CCOC(=O)C(C)(c1cn(C)c2ccccc12)c1cn(C)c2ccccc12`, the TGI in assay [1], in assay [2], in assay [3], in assay [4] and in assay [5] was more than 100 µM throughout.
Turning to `COc1ccc(OC)c(NC(=O)CCC/C(CC(=O)c2ccc(O)c(OC)c2)=N\NC(=O)C[N+](C)(C)C)c1`, the TGI in assay [1], in assay [2], in assay [3], in assay [4], in assay [5] and in assay [6] was more than 100 µM each time.
`COc1cc2c(cc1OC(=O)CC(C)O)C1C(OC2=O)C(OC(C)=O)C=C2CCN(C)[C@H]21` (stereo not given in full): the TGI in assay [1] is 93.9 µM; in assay [2], more than 100 µM; in assay [3] it was more than 100 µM; in assay [4] it was 38.6 µM; in assay [5], more than 100 µM; in assay [6], 69.4 µM.
Consider `CCOC(=O)c1nc2ccc([N+](=O)[O-])cc2c2c1CCO2`, for which the TGI in assay [1], in assay [2], in assay [3], in assay [4], in assay [5] and in assay [6] was more than 100 µM each time.
Take `COc1cc(C(=O)C/C(CCC(=O)Nc2ccccc2[N+](=O)[O-])=N\NC(=O)CC#N)ccc1O`: the TGI in assay [1], in assay [2], in assay [3], in assay [4], in assay [5] and in assay [6] was more than 100 µM throughout.
With `Nn1c(-c2ccccc2Cl)nc2ccccc2c1=O`, the TGI in assay [1], in assay [2], in assay [3], in assay [4], in assay [5] and in assay [6] was more than 100 µM in each case.
For the molecule `CCCCNCC(=O)O[C@]1(CC)C(=O)OCc2c1cc1n(c2=O)Cc2cc3ccccc3nc2-1`, the TGI in assay [1] was 6.9 µM; in assay [2] it was more than 100 µM; in assay [3] it was 6.21 µM; in assay [7], 8.36 µM; in assay [4], 2.92 µM; in assay [5], more than 100 µM. The TGI in assay [6] was 48.9 µM; in assay [8] it was 23.1 µM.
Consider `COc1ccc(C2=C(Cl)c3cc(OC)c(OC)cc3C2Cl)cc1OC` (stereo not given), for which the TGI amounted to 44.4 µM in assay [1]; 34.9 µM in assay [2]; 31.7 µM in assay [3]; 29.4 µM in assay [4]; 29.5 µM in assay [5]; 55.6 µM in assay [6].

The values are drawn from PubChem BioAssay (NCI).
